Assay results as given in patent US10478446B2, “Compounds for use in polycystic kidney disease” (FONDAZIONE CENTRO SAN RAFFAELE OFFICE OF BIOTECHNOLOGY …, priority 2012, dated 2019).
“Also recorded” adds a separate entry of the source. One block for each compound: values may come before it.

Experiments:
Pkd1^flox/−:Ksp-Cre mice = assay: 2DG treatment of mice with cystic kidneys; assay type: in vivo, mouse
Method: For proliferation assays immunostaining was carried our using an anti-Ki67 antibody followed by analysis. For cells, fluorescence was measured on triplicates of 300 cells using the microscope Axioplot (Zeiss). For kidney sections, pictures at 20× were taken using the camera Axio MRc5 (Zeiss) with the microscope Axioplan 2 (Zeiss), positive cells were counted on 6 sections for each group for each experiment using the ImageJ software.
(§1) Generation of Pkd1^flox/−:Ksp-Cre mice was previously described. Briefly, we crossed Pkd1^flox/flox29 and Pkd1^+/−: Ksp-Cre mice in pure C57/B16 genetic background. For treatments 2DG (Sigma-Aldrich) or vehicle (NaCl) were injected subcutaneously daily from P6 until P8 at 500 mg/kg.
(§2) 2DG (Sigma-Aldrich) or vehicle (NaCl) were injected subcutaneously daily from P6 until P8 at 500 mg/kg.
(§3) After sacrifice, kidneys were removed, washed in phosphate-buffered saline (PBS), weighed and fixed in 4% Para formaldehyde (PFA). After incubation in a sucrose in PBS gradient scale from 10% to 30% samples were incubated in 10% glycerol (Sigma) in a mixture of OCT (BIO-OPTICA) and sucrose 30%, finally embedded in OCT. Criostat sections were air-dried 1 h, rehydrated in PBS, incubated in Harris Hematoxylin 1:10 (Sigma Aldrich) for 2 min, washed, incubated in Eosin G (BIO-OPTICA) for 7 min, washed dehydrated and mounted in DEPEX (Sigma).
For Immunohistochemistry 10 μm cryosections were washed in Tween-0.1% in PBS (like all washes), fixed in PAF4%, permeabilized in Triton 0.1% in PBS, incubated in hydrogen peroxide 0.3% for 30 min, blocked for 1 h at room temperature with 5% Normal Goat Serum (Sigma Aldrich) 3% bovine serum albumin (BSA, Sigma) in phosphate-buffered saline, incubated O/N at 4° C. with the Antibody (ab) in blocking buffer diluted at 1:500. Sections were then incubated with the Dako EnVision+System-HRP (Dako). Staining is completed by an incubation with 3,3′ diaminobenzidine tetrahydrochloride (DAB) DAB+Substrate Chromogen System (DakoCytomation) and counterstained with Harris Hematoxylin (Sigma Aldrich). diluted 1/10 for 3 min.
A grid of squares 13.625 μm large was applied to sections of kidneys stained with Hematoxylin-Eosin. Each cross is marked with a dot, number of dots inside the lumen are counted on three litters (218 000 μm^2 for each). The degree of dilatation is determined according to Lu et al., 1999 ^32:1 dot: normal tubules; 2 dots: dilatated tubules; 3-9 dots: Small cysts; ≥10 dots: Cysts.

[1] = system: wt mice (ksp-cre: Pkd1^+/flox); assay: 2DG treatment of wt mice; assay type: in vivo, mouse; conditions: 2DG 500 mg/kg daily P6 to P8
Method: as §1, §2, §3

Pkd1^−/− MEFs [2] = assay: Western blot of signalling phosphoproteins (pAMPK, pERK, pS6RP, pLKB1); assay type: cell-based, mouse
Method: (§5) Antibodies anti-p-Akt 5473, anti-p-AMPK-Thr172; anti-AMPK, anti-p-S6RP Ser 235/236; anti-S6Rp; anti-p-ERK T202/Y204 and anti-ERK antibodies were from Cell Signaling Technology and used at 1:1000; anti-LC3 NB100 was from Novus Biologicals; anti-actin and anti-tubulin antibodies were from Sigma Aldrich and used at 1:5000. Anti-ki67 was from Novocastra and was used at 1:400. UO126 and rapamycin (Cell Signaling Technologies) were employed at final concentrations of 30 μM and 20 or 50 nM, respectively. AICAR and Metfomin (Sigma Aldrich) were used at the final concentration of 2 mM, oligomycin (Sigma Aldrich) was used at the final concentration of 30 μg/ml.
For western blot analysis, the cells were lysed [lysis buffer: 250 mM sucrose, 20 mM imidazole and 1 mM EDTA, pH 7.4, 0.5% Triton-X 100, supplemented with Protease Inhibitors Cocktail (Amersham) and phosphatase inhibitors (1 mM final of glycerophosphate, sodium orthovanadate and sodium fluoride)]. Total lysates were quantified and Laemmli buffer was added to reach a 1× final concentration. Proteins were resolved in a SDS-PAGE gel and transferred onto PVDF membranes. Next, 5% milk in TBS-T was used for blocking and for secondary antibody incubations, while 2% BSA in TBS-T was used for incubations with primary antibodies. HRP-conjugated secondary antibodies (from Roche) were visualized using the ECL System (Amersham), which were mixed with Super-Femto ECL System from Pierce when necessary.

Pkd1^+/+ MEFs [3] = conditions: UO126
Method: as §5
For western blot analysis, the cells were lysed [lysis buffer: 250 mM sucrose, 20 mM imidazole and 1 mM EDTA, pH 7.4, 0.5% Triton-X 100, supplemented with Protease Inhibitors Cocktail (Amersham) and phosphatase inhibitors (1 mM final of glycerophosphate, sodium orthovanadate and sodium fluoride)]. Total lysates were quantified and Laemmli buffer was added to reach a 1× final concentration. Proteins were resolved in a SDS-PAGE gel and transferred onto PVDF membranes. Next, 5% milk in TBS-T was used for blocking and for secondary antibody incubations, while 2% BSA in TBS-T was used for incubations with primary antibodies. […]

PKD mouse model = conditions: Takiar et al. 2011; cited from earlier work
Pkd1^+/+ MEFs [4] = assay: ATP content of MEFs after oligomycin; assay type: cell-based, mouse; conditions: oligomycin for 5 h, before treatment 102891+/−1042 RLU
Method: For ATP content evaluation, whole-cell extracts of control and treated MEFs cells were prepared by suspending pellets in lysis buffer as described in Distefano et al, 2009. […] Medium of control and treated MEFs was taken after 24 h at 100% of confluence. The concentration of lactate using EnzyChrom™ L-lactate Assay Kit (BioAssay Systems) and quantified on the final number of cells.

Pkd1^+/+ MEFs [5] = assay: Autophagosomes per cell by electron microscopy; assay type: cell-based, mouse; conditions: rapamycin 50 nM
Method: (§4) Cell culture monolayers were fixed for 15 min at 4° C. with PAF 4% and 2.5% glutaraldehyde in 125 mM cacodylate buffer. The monolayers were detached by rubber and centrifuged at high speed. The pellet was post-fixed (1 hour) with 2% OsO4 in 125 mM cacodylate buffer, was washed, dehydrated and embedded in Epon. Conventional thin sections were collect on uncoated grids, stained with uranil and lead citrate and examined in a Leo912 electron microscope.

Pkd1^−/− MEFs [6] = assay: Autophagosomes per cell by electron microscopy / autophagy; assay type: cell-based, mouse; conditions: rapamycin 50 nM
Method: as §4

[7] = 2DG 500 mg/kg daily P6 to P8, genotype not stated
[8] = 2DG 500 mg/kg daily P6 to P8, treated vs untreated mutant kidneys
[9] = cystic kidneys treated with 2DG

kidney weight [1]: did not affect
SMILES: O=CC[C@@H](O)[C@H](O)[C@H](O)CO [2DG, 2-deoxyglucose]
proliferation index in the cystic kidneys (Ki67 assay) (Pkd1^flox/−:Ksp-Cre mice; 2DG 500 mg/kg daily P6 to P8, vs vehicle (NaCl)): decreased; also recorded: reduced
proliferation rates in the cyst lining epithelium (Ki67) (Pkd1^flox/−:Ksp-Cre mice; 2DG 500 mg/kg daily P6 to P8, NaCl 28.48+/−5.39%): 10.53+/−4.38%
brain weight normalized by body weight (Pkd1^flox/−:Ksp-Cre mice; [7]): did not showed effect; also recorded: do not change
liver weight normalized by body weight (Pkd1^flox/−:Ksp-Cre mice; [7]): did not showed effect; also recorded: do not change
body weight (Pkd1^flox/−:Ksp-Cre mice; 2DG 500 mg/kg daily P6 to P8, mutant mice): did not alter; also recorded: do not change
number of normal and dilated tubules (cystic index) (Pkd1^flox/−:Ksp-Cre mice; [8]): slightly reduced
number of small cysts (cystic index) (Pkd1^flox/−:Ksp-Cre mice; [8]): significantly reduced
ratio of kidney weight on body weight (Pkd1^flox/−:Ksp-Cre mice; 2DG 500 mg/kg daily subcutaneously P6 to P8, mutant mice, vs vehicle (NaCl)): effect of the treatment with the 2DG only on mutant animals; also recorded: significantly reduced
number of cysts (cystic index) (Pkd1^flox/−:Ksp-Cre mice; [9]): significant decrease
number of normal tubules (cystic index) (Pkd1^flox/−:Ksp-Cre mice; [9]): increased
body weight [1]: did not alter

SMILES: NC(=O)c1ncn([C@@H]2O[C@H](CO)[C@@H](O)[C@H]2O)c1N [AICAR, 5-aminoimidazole-4-carboxamide ribonucleoside]
pAMPK levels (Pkd1^−/− MEFs [2]; AICAR (1 mM)): restored; also recorded: increased
pERK (Pkd1^−/− MEFs [2]; AICAR (1 mM)): restored to baseline levels; also recorded: inhibited

SMILES: N#CC(=C(/N)Sc1ccccc1N)/C(C#N)=C(/N)Sc1ccccc1N [UO126]
pAMPK (Pkd1^−/− MEFs [2]; 30 μM UO126 for 12 h): enhances
pERK (Pkd1^−/− MEFs [2]; 30 μM UO126 for 12 h): restores normal
pS6RP (Pkd1^−/− MEFs [2]; 30 μM UO126 for 12 h): restores normal
pLKB1 levels (LKB1 phosphorylation at 5428) (Pkd1^−/− MEFs [2]; UO126, Pkd1^−/− MEFs): reduced
pLKB1 levels (LKB1 phosphorylation at 5428) (Pkd1^+/+ MEFs [3]): reduced

SMILES: CN(C)C(=N)N=C(N)N [metformin]
pAMPK levels (Pkd1^−/− MEFs [2]; metformin (2 mM)): restored; also recorded: increased
pERK (Pkd1^−/− MEFs [2]; metformin (2 mM)): restored to baseline levels; also recorded: inhibited
cyst expansion (PKD mouse model): effectively reduce

SMILES: CC[C@H]1/C=C/C=C/C[C@@H](C)[C@H](O)[C@@](C)(O)C(=O)[C@@H](C)[C@H](O)[C@@H](C)C(=O)[C@@H](C)[C@H](O)[C@@H](C)/C=C/C(=O)O[C@@H]2[C@H](C)[C@H](CC1)O[C@]1(CC[C@H](C)[C@H](C[C@@H](C)O)O1)[C@H]2C [oligomycin]
ATP content (Pkd1^+/+ MEFs [4]): decreased

SMILES: CO[C@H]1C[C@@H]2CC[C@@H](C)[C@@](O)(O2)C(=O)C(=O)N2CCCC[C@H]2C(=O)O[C@H]([C@H](C)C[C@@H]2CC[C@@H](O)[C@H](OC)C2)CC(=O)[C@H](C)/C=C(\C)[C@@H](O)[C@@H](OC)C(=O)[C@H](C)C[C@H](C)/C=C/C=C/C=C/1C [rapamycin]
number of autophagosomes per cells evaluated by EM (Pkd1^+/+ MEFs [5]): 2.87+/−0.55 a.u.
number of autophagosomes per cells evaluated by EM (Pkd1^−/− MEFs [6]): 0.96+/−0.18 a.u.
